Results reported in BigSolDB 2.1.

O=C1OC(=O)[C@H]2[C@@H]1[C@@H]1C=C[C@H]2C1
solubility (mole fraction) (in 1,4-dioxane, 288.15 K): 0.0718 | solubility (mole fraction) (in 1,4-dioxane, 293.15 K): 0.0836 | solubility (mole fraction) (in 1,4-dioxane, 298.15 K): 0.0939 | solubility (mole fraction) (in 1,4-dioxane, 303.15 K): 0.107 | solubility (mole fraction) (in 1,4-dioxane, 308.15 K): 0.123 | solubility (mole fraction) (in 1,4-dioxane, 313.15 K): 0.136 | solubility (mole fraction) (in 1,4-dioxane, 318.15 K): 0.154 | solubility (mole fraction) (in 1,4-dioxane, 323.15 K): 0.173 | solubility (mole fraction) (in DMF, 278.15 K): 0.0809 | solubility (mole fraction) (in DMF, 283.15 K): 0.0925 | solubility (mole fraction) (in DMF, 288.15 K): 0.106 | solubility (mole fraction) (in DMF, 293.15 K): 0.12 | solubility (mole fraction) (in DMF, 298.15 K): 0.135 | solubility (mole fraction) (in DMF, 303.15 K): 0.152 | solubility (mole fraction) (in DMF, 308.15 K): 0.171 | solubility (mole fraction) (in DMF, 313.15 K): 0.186 | solubility (mole fraction) (in DMF, 318.15 K): 0.208 | solubility (mole fraction) (in DMF, 323.15 K): 0.23 | solubility (mole fraction) (in NMP, 278.15 K): 0.112 | solubility (mole fraction) (in NMP, 283.15 K): 0.126 | solubility (mole fraction) (in NMP, 288.15 K): 0.14 | solubility (mole fraction) (in NMP, 293.15 K): 0.156 | solubility (mole fraction) (in NMP, 298.15 K): 0.172 | solubility (mole fraction) (in NMP, 303.15 K): 0.19 | solubility (mole fraction) (in NMP, 308.15 K): 0.209 | solubility (mole fraction) (in NMP, 313.15 K): 0.225 | solubility (mole fraction) (in NMP, 318.15 K): 0.245 | solubility (mole fraction) (in NMP, 323.15 K): 0.265 | solubility (mole fraction) (in acetone, 278.15 K): 0.0395 | solubility (mole fraction) (in acetone, 283.15 K): 0.0475 | solubility (mole fraction) (in acetone, 288.15 K): 0.0559 | solubility (mole fraction) (in acetone, 293.15 K): 0.0658 | solubility (mole fraction) (in acetone, 298.15 K): 0.0776 | solubility (mole fraction) (in acetone, 303.15 K): 0.0897 | solubility (mole fraction) (in acetone, 308.15 K): 0.106 | solubility (mole fraction) (in acetone, 313.15 K): 0.121 | solubility (mole fraction) (in acetone, 318.15 K): 0.138 | solubility (mole fraction) (in acetone, 323.15 K): 0.155 | solubility (mole fraction) (in ethanol, 278.15 K): 0.00216 | solubility (mole fraction) (in ethanol, 283.15 K): 0.00264 | solubility (mole fraction) (in ethanol, 288.15 K): 0.00354 | solubility (mole fraction) (in ethanol, 293.15 K): 0.00441 | solubility (mole fraction) (in ethanol, 298.15 K): 0.0056 | solubility (mole fraction) (in ethanol, 303.15 K): 0.00699 | solubility (mole fraction) (in ethanol, 308.15 K): 0.00872 | solubility (mole fraction) (in ethanol, 313.15 K): 0.0109 | solubility (mole fraction) (in ethanol, 318.15 K): 0.0135 | solubility (mole fraction) (in ethanol, 323.15 K): 0.0168 | solubility (mole fraction) (in ethyl acetate, 278.15 K): 0.0293 | solubility (mole fraction) (in ethyl acetate, 283.15 K): 0.0338 | solubility (mole fraction) (in ethyl acetate, 288.15 K): 0.0413 | solubility (mole fraction) (in ethyl acetate, 293.15 K): 0.0484 | solubility (mole fraction) (in ethyl acetate, 298.15 K): 0.0535 | solubility (mole fraction) (in ethyl acetate, 303.15 K): 0.0632 | solubility (mole fraction) (in ethyl acetate, 308.15 K): 0.0737 | solubility (mole fraction) (in ethyl acetate, 313.15 K): 0.0838 | solubility (mole fraction) (in ethyl acetate, 318.15 K): 0.0969 | solubility (mole fraction) (in ethyl acetate, 323.15 K): 0.11 | solubility (mole fraction) (in isobutyl acetate, 278.15 K): 0.0199 | solubility (mole fraction) (in isobutyl acetate, 283.15 K): 0.0236 | solubility (mole fraction) (in isobutyl acetate, 288.15 K): 0.0284 | solubility (mole fraction) (in isobutyl acetate, 293.15 K): 0.0341 | solubility (mole fraction) (in isobutyl acetate, 298.15 K): 0.0396 | solubility (mole fraction) (in isobutyl acetate, 303.15 K): 0.0468 | solubility (mole fraction) (in isobutyl acetate, 308.15 K): 0.0552 | solubility (mole fraction) (in isobutyl acetate, 313.15 K): 0.0636 | solubility (mole fraction) (in isobutyl acetate, 318.15 K): 0.0741 | solubility (mole fraction) (in isobutyl acetate, 323.15 K): 0.0848 | solubility (mole fraction) (in isopropyl acetate, 278.15 K): 0.021 | solubility (mole fraction) (in isopropyl acetate, 283.15 K): 0.0258 | solubility (mole fraction) (in isopropyl acetate, 288.15 K): 0.03 | solubility (mole fraction) (in isopropyl acetate, 293.15 K): 0.0357 | solubility (mole fraction) (in isopropyl acetate, 298.15 K): 0.0417 | solubility (mole fraction) (in isopropyl acetate, 303.15 K): 0.0489 | solubility (mole fraction) (in isopropyl acetate, 308.15 K): 0.0569 | solubility (mole fraction) (in isopropyl acetate, 313.15 K): 0.0661 | solubility (mole fraction) (in isopropyl acetate, 318.15 K): 0.0768 | solubility (mole fraction) (in isopropyl acetate, 323.15 K): 0.0878 | solubility (mole fraction) (in methanol, 278.15 K): 0.00403 | solubility (mole fraction) (in methanol, 283.15 K): 0.00504 | solubility (mole fraction) (in methanol, 288.15 K): 0.00635 | solubility (mole fraction) (in methanol, 293.15 K): 0.00781 | solubility (mole fraction) (in methanol, 298.15 K): 0.0101 | solubility (mole fraction) (in methanol, 303.15 K): 0.0126 | solubility (mole fraction) (in methanol, 308.15 K): 0.0157 | solubility (mole fraction) (in methanol, 313.15 K): 0.0201 | solubility (mole fraction) (in methanol, 318.15 K): 0.0246 | solubility (mole fraction) (in methanol, 323.15 K): 0.0311 | solubility (mole fraction) (in methyl acetate, 278.15 K): 0.0358 | solubility (mole fraction) (in methyl acetate, 283.15 K): 0.0425 | solubility (mole fraction) (in methyl acetate, 288.15 K): 0.0485 | solubility (mole fraction) (in methyl acetate, 293.15 K): 0.0562 | solubility (mole fraction) (in methyl acetate, 298.15 K): 0.0644 | solubility (mole fraction) (in methyl acetate, 303.15 K): 0.0754 | solubility (mole fraction) (in methyl acetate, 308.15 K): 0.0851 | solubility (mole fraction) (in methyl acetate, 313.15 K): 0.0973 | solubility (mole fraction) (in methyl acetate, 318.15 K): 0.11 | solubility (mole fraction) (in methyl acetate, 323.15 K): 0.125 | solubility (mole fraction) (in n-butyl acetate, 278.15 K): 0.0216 | solubility (mole fraction) (in n-butyl acetate, 283.15 K): 0.0259 | solubility (mole fraction) (in n-butyl acetate, 288.15 K): 0.031 | solubility (mole fraction) (in n-butyl acetate, 293.15 K): 0.0367 | solubility (mole fraction) (in n-butyl acetate, 298.15 K): 0.0428 | solubility (mole fraction) (in n-butyl acetate, 303.15 K): 0.0505 | solubility (mole fraction) (in n-butyl acetate, 308.15 K): 0.0587 | solubility (mole fraction) (in n-butyl acetate, 313.15 K): 0.0683 | solubility (mole fraction) (in n-butyl acetate, 318.15 K): 0.0788 | solubility (mole fraction) (in n-butyl acetate, 323.15 K): 0.0908 | solubility (mole fraction) (in n-pentyl acetate, 278.15 K): 0.0192 | solubility (mole fraction) (in n-pentyl acetate, 283.15 K): 0.0231 | solubility (mole fraction) (in n-pentyl acetate, 288.15 K): 0.0276 | solubility (mole fraction) (in n-pentyl acetate, 293.15 K): 0.0327 | solubility (mole fraction) (in n-pentyl acetate, 298.15 K): 0.0388 | solubility (mole fraction) (in n-pentyl acetate, 303.15 K): 0.0455 | solubility (mole fraction) (in n-pentyl acetate, 308.15 K): 0.0535 | solubility (mole fraction) (in n-pentyl acetate, 313.15 K): 0.0626 | solubility (mole fraction) (in n-pentyl acetate, 318.15 K): 0.0726 | solubility (mole fraction) (in n-pentyl acetate, 323.15 K): 0.0837 | solubility (mole fraction) (in n-propyl acetate, 278.15 K): 0.0249 | solubility (mole fraction) (in n-propyl acetate, 283.15 K): 0.0303 | solubility (mole fraction) (in n-propyl acetate, 288.15 K): 0.0357 | solubility (mole fraction) (in n-propyl acetate, 293.15 K): 0.0414 | solubility (mole fraction) (in n-propyl acetate, 298.15 K): 0.0486 | solubility (mole fraction) (in n-propyl acetate, 303.15 K): 0.0565 | solubility (mole fraction) (in n-propyl acetate, 308.15 K): 0.0661 | solubility (mole fraction) (in n-propyl acetate, 313.15 K): 0.0761 | solubility (mole fraction) (in n-propyl acetate, 318.15 K): 0.0878 | solubility (mole fraction) (in n-propyl acetate, 323.15 K): 0.101
